Data on 7 molecules can be found in US5434182A (priority 1993, dated 1995).

Molecules are shown by their SMILES. Values joined by “and” are separate entries in the source; they are usually repeats but may differ in a detail not shown here. Equal entries are not always repeated. “Also recorded” adds a separate entry of the source. Where two headings read alike, the source gives them in different places. Where only a bound is given, the exact number is not on record here.

Series [1] concerns VSV. As to the kind of experiment: microbe, parasite or virus in culture. The format is cell-based, vesicular stomatitis virus strain Indiana. The settings on record: for minimal effective concentration: read-out: Lowest concentration causing ≥3.0 log10 reduction in virus titer.
Series [2] has as its system VSV. As to the kind of experiment: microbe, parasite or virus in culture. The format is cell-based, vesicular stomatitis virus.
Series [3] has as its system HSV-1. It counts as cell-based, herpes simplex virus type 1 strain MacIntyre.
For series [4], the system named is HSV-1. Kind of series: microbe, parasite or virus in culture. The format is cell-based, herpes simplex virus type 1 strain MacIntyre. The settings on record: Human alphaherpesvirus 1, 0.5 h; 0.25 mg/ml, 37° C., 30 min; read-out: Reduction of virus titer, HSV-1.
Series [5] deals with Group B streptococcus. Kind of series: Inactivation of bacteria by monoglycerides, Group B streptococcus. The format is cell-based. To be noted: 2 mg/ml, read-out: Reduction of bacterial concentration, Group B streptococcus.
Series [6] has as its system Total White Blood Cells. As to the kind of experiment: Stability of white blood cells in whole human blood to added lipid. Further details: unit not given here. The settings on record: 15 mM, control 6.4. The format is cell-based. From the text:
Further testing has shown the effect of monoglyceride esters and ether on the total white blood cell concentration in whole human blood.

Series [7] concerns VSV. Kind of series: microbe, parasite or virus in culture. The format is cell-based, vesicular stomatitis virus. To be noted: for log reduction at 15000 µM: Vesicular stomatitis virus.
The test system of series [8] is sperm. Kind of series: Spermicidal test: motility and viability of sperm in semen. The format is cell-based. To be noted: for viability at 100000 µM / viability at 150000 µM: Homo sapiens, Sperm. The method, then: The fatty acids and derivatives thereof disclosed here are useful as spermicides and in the treatment of sexually transmitted diseases. […] Four samples tested were comprised as follows:
Five test tubes were prepared, one for each of Samples A to D and a Control. An amount of 0.5 ml of active semen was added to each test tube. Each of Samples A and B and the Control was at 37° C., and Samples C and D were at room temperature. The percentages of motility and viability were measured from 15 seconds to 5 minutes in the case of each of Samples A to D and from 15 seconds to 2 hours for the Control.

For series [9], the system named is HSV-1. As to the kind of experiment: microbe, parasite or virus in culture. The format is cell-based, herpes simplex virus type 1 strain MacIntyre. The settings on record: Human alphaherpesvirus 1, 0.5 h, 37° C., 30 min, read-out: Reduction of virus titer, HSV-1.
For series [10], the system named is Visna virus. Kind of series: microbe, parasite or virus in culture. It counts as cell-based, Visna virus strain K796. To be noted: Visna-maedi virus, 0.5 h, 37° C., 30 min, read-out: Reduction of virus titer, VV (visna virus).
Series [11] concerns enveloped viruses. The format is cell-based.
In series [12] the test system is poliovirus. The format is cell-based, Poliovirus type 1 strain Chat. The settings on record: 8 mg/ml, 37° C., 30 min; control 10^4.7 TCID50.
In series [13] the test system is VSV. As to the kind of experiment: microbe, parasite or virus in culture. It counts as cell-based, vesicular stomatitis virus strain Indiana. The settings on record: Vesicular stomatitis virus, 0.5 h; for minimal effective concentration: read-out: lowest concentration which reduced the VSV titer by ≥4.0 log10 units.
Series [14] has as its system Vero cells. As to the kind of experiment: Disintegration of cell membranes, Vero cells (scanning electron microscopy). The settings on record: 1 mg/ml, 37° C., 30 min.
The test system of series [15] is VSV. As to the kind of experiment: microbe, parasite or virus in culture. It counts as cell-based, vesicular stomatitis virus strain Indiana. The settings on record: for effect on viral particles (electron micrographs): 37° C., 30 min.
The test system of series [16] is sheep fibroblasts. As to the kind of experiment: Disintegration of cell membranes, sheep fibroblasts (scanning electron microscopy). To be noted: 1 mg/ml, 37° C., 30 min.
Setting [17] is: Vesicular stomatitis virus, 0.5 h.
Where [18] appears, read: Vesicular stomatitis virus, 0.5 h, read-out: Reduction of virus titer, VSV.
The mark [19] stands for this setting: read-out: Reduction of virus titer, VSV.

As to `CCCCCCCCCCCC(=O)OCC(O)CO` (racemic) [Monolaurin (12:0), 1-Monolauroyl-rac-glycerol], the minimal effective concentration in series [1] (setting [17]) was 250 µg/mL and 900 µM. Moreover, the log reduction at 250 µg/mL in series [1] (setting [18]) is ≥ 4; in series [4] it was ≥ 3.7. The “active concentration relative to corresponding free acids” value in series [1] (monoglyceride vs free acid) was “ten times lower”. Besides, in [2] (VSV, human serum), the “dependence of viral killing on sodium taurocholate” value was “only takes place when sodium taurocholate is present”. The log reduction at 3000 µM is ≥ 5 in [2] (Vesicular stomatitis virus, read-out: Reduction in VSV Titer, 3 mM, 10 mM sodium taurocholate, human serum) and 0 in series [2] (Vesicular stomatitis virus, read-out: Reduction in VSV Titer, 3 mM, no sodium taurocholate, human serum). The log reduction at 4000 µM in [2] (Vesicular stomatitis virus, read-out: Reduction in VSV Titer, 4 mM, 10 mM sodium taurocholate, human serum) is ≥ 5; in series [2] (Vesicular stomatitis virus, read-out: Reduction in VSV Titer, 4 mM, no sodium taurocholate, human serum), 0. In addition, the log reduction at 5000 µM in [2] (Vesicular stomatitis virus, read-out: Reduction in VSV Titer, 5 mM, 10 mM sodium taurocholate, human serum) was ≥ 5; in [2] (Vesicular stomatitis virus, read-out: Reduction in VSV Titer, 5 mM, no sodium taurocholate, human serum), 0. Moreover, in [2] (Vesicular stomatitis virus, read-out: Reduction in VSV Titer, 7.5 mM, 10 mM sodium taurocholate, human serum (Table 18)), the log reduction at 7500 µM was ≥ 5. The log reduction at 15000 µM in [2] (Vesicular stomatitis virus, read-out: Reduction in VSV Titer, 15 mM, 10 mM sodium taurocholate, human serum) is ≥ 5. The “concentration as low as which kills VSV” value in [2] (in the presence of 10 mM sodium taurocholate) is on record as 3 mM. Further, the “Reduction of HSV-L titer” value in [3] (incubation 0.5 min), in [3] (incubation 1 min), in series [3] (incubation 5 min), in series [3] (incubation 10 min) and in [3] (incubation 30 min) was ≥ 4.0 throughout. Besides, the log reduction at 2000 µg/mL in series [5] is 4.5.

On to `CCCCCCCCOC[C@@H](O)CO` [1-O-Octyl-sn-glycerol, 1-O-octyl-sn-glycerol], for which the “Total White Blood Cells” value in [6] is reported as 0.6. Moreover, the “Reduction in VSV titer” value in series [7] (5 mM, with 10 mM sodium taurocholate, human plasma, 37° 30 min) is ≥ 4.0 Log10. For the same molecule, the log reduction at 15000 µM in series [7] (2.5 min, read-out: Reduction in VSV Titer, 15 mM, 2.5 min, 37°, human plasma) was 0; in series [7] (5 min, read-out: Reduction in VSV Titer, 15 mM, 5 min, 37°, human plasma) it was ≥ 4; in series [7] (10 min, read-out: Reduction in VSV Titer, 15 mM, 10 min, 37°, human plasma) it was ≥ 4; in series [7] (0.25 h, read-out: Reduction in VSV Titer, 15 mM, 15 min, 37°, human plasma) it was ≥ 4; in series [7] (0.5 h, read-out: Reduction in VSV Titer, 15 mM, 30 min, 37°, human plasma), ≥ 4; in series [7] (0.5 h, read-out: Reduction in VSV Titer, 15 mM, no sodium taurocholate, human plasma, 37° 30 min), ≥ 4. Moreover, the “antiviral activity of MG ethers relative to esters, in words” value in [7] (human plasma, listed as 8 carbon MG ether) is on record as “just as effective as the naturally occurring esters; also recorded: somewhat more antiviral than the 8 carbon ester”. For the same molecule, the “% mot.” value in series [8] (100 mM in semen, 15 sec., Sample B 37° C., Sample D room temperature) is on record as 0%; in series [8] (100 mM in semen, 30 sec., Sample B 37° C., Sample D room temperature), 0%; in series [8] (100 mM in semen, 1 min., Sample B 37° C., Sample D room temperature), 0%; in series [8] (100 mM in semen, 2 min., Sample B 37° C., Sample D room temperature) it was 0%; in series [8] (100 mM in semen, 3 min., Sample B 37° C., Sample D room temperature), 0%; in series [8] (100 mM in semen, 5 min., Sample B 37° C., Sample D room temperature), 0%. The “% mot.” value in series [8] (150 mM in semen, 15 sec., Sample A 37° C., Sample C room temperature) is listed as 0%; in series [8] (150 mM in semen, 30 sec., Sample A 37° C., Sample C room temperature), 0%; in series [8] (150 mM in semen, 1 min., Sample A 37° C., Sample C room temperature) it was 0%; in series [8] (150 mM in semen, 2 min., Sample A 37° C., Sample C room temperature), 0%; in [8] (150 mM in semen, 3 min., Sample A 37° C., Sample C room temperature) it was 0%; in [8] (150 mM in semen, 5 min., Sample A 37° C., Sample C room temperature), 0%. In addition, the “time within which 0% viability was effected” value in series [8] (A, C 150 mM, B 100 mM in semen) is ≤ 3 min. Besides, the “time within which sperm cells were rendered immobile” value in [8] (A, C 150 mM, B 100 mM in semen) was ≤ 15 s. For the same molecule, the coating of sperm result in series [8] (A, C 150 mM, B, D 100 mM in semen, 30 minutes) is on record as “coated the sperm effectively”. Also, the viability (usually the share of living cells, or the viability signal relative to a control) at 100000 µM in [8] (0.05 h, 100 mM in semen, 3 min., Sample B 37° C.) worked out at 0%; in [8] (5 min, 100 mM in semen, Sample B 37° C., Sample D room temperature), 0%. Also, the viability at 150000 µM in [8] (0.05 h, 150 mM in semen, 3 min., Sample A 37° C., Sample C room temperature) was found to be 0%; in series [8] (5 min, 150 mM in semen, Sample A 37° C., Sample C room temperature), 0%.

For `CCCCCCCCCCCC(=O)O` [Lauric (12:0), Lauric], the figures for the log reduction at 2000 µg/mL in series [9] (2 mg/ml), in [10] (2 mg/ml) and in series [13] (setting [19]) were ≥ 4, ≥ 3.2 and ≥ 4, respectively. In addition, the “antiviral activity in words” value in series [11] is reported as “showed activity”. Further, the “reduction of poliovirus titer” value in series [12] was “did not cause a significant reduction of virus titer”. For the same molecule, the minimal effective concentration in series [13] is 2000 µg/mL and 10000 µM.

For the molecule `CCCCC/C=C\C/C=C\CCCCCCCC(=O)O` [Linoleic (18:2), linoleic acid], the “effect on cell membranes” value in series [14] and in [16] was “the cell membranes were partly or completely disintegrated” each time. In addition, the log reduction at 1000 µg/mL was ≥ 4 in [9] (1 mg/ml); ≥ 3 in series [15] (Vesicular stomatitis virus, 0.5 h, read-out: reduction in virus titer, 1 mg/ml, samples used for electron microscopy); ≥ 3.2 in [10] (1 mg/ml); ≥ 4 in [13] (setting [19]). The “effect on viral particles (electron micrographs)” value in [15] (0.5 mg/ml) is given as “leakage of viral envelopes was produced”; in series [15] (1 mg/ml), “particle disintegration”. The log reduction at 500 µg/mL in [15] (Vesicular stomatitis virus, 0.5 h, read-out: reduction in virus titer, 0.5 mg/ml, samples used for electron microscopy) worked out at 1. In [12], the “reduction of poliovirus titer” value is reported as “did not cause a significant reduction of virus titer”. In addition, in [13], the minimal effective concentration was 1000 µg/mL and 3500 µM.

`CCCCC/C=C\C/C=C\CCCCCCCC(=O)OC[C@@H](O)CO` [Monolinolein (18:2), Monolinolein]: the minimal effective concentration in series [1] (setting [17]) is 250 µg/mL and 700 µM. Moreover, the log reduction at 250 µg/mL in series [1] (setting [18]) is ≥ 4. In addition, in [1] (maintenance medium, millimolar), the “concentration relative to monocaprin for same reduction in viral titer” value was “one-third the concentration”. Further, the log reduction at 2000 µg/mL in series [5] is 4.5.

In the case of `CCCCCCCCCCCCCC(=O)OCC(O)CO` (stereo not drawn) [Monomyristin (14:0), Monomyristin], in [1] (setting [17]), the minimal effective concentration was 2000 µg/mL and 13000 µM. Further, in series [1] (setting [18]), the log reduction at 2000 µg/mL turned out to be 3. In series [11], the “antiviral activity in words” value is “consistently less active”.

Turning to `CCCCCCCCCCCCCC(=O)O` [Myristic (14:0), Myristic], the log reduction at 4000 µg/mL in series [9] (4 mg/ml) is ≥ 4; in [10] (4 mg/ml) it was 1.7; in [13] (setting [19]) it was ≥ 4. Moreover, in [11], the “antiviral activity in words” value was “showed activity”. For the same molecule, the “reduction of poliovirus titer” value in [12] was “did not cause a significant reduction of virus titer”. Also, the minimal effective concentration in series [13] is 4000 µg/mL and 16000 µM.
